From article PMC12434668 (Journal of Medicinal Chemistry, 2025)
Where “and” joins values, the source holds several entries; their conditions need not be identical. Equal values may be shown once. Read-outs that look alike come from different tables or passages of the source.

Columns and labels:
[1] = Mouse pharmacokinetic analyses (i.v. and oral); assay type: in vivo; details: plasma, iv
Description: For PK analysis, mice were administered intravenously or orally with compound formulated in 10% ethanol and 10% Cremophor EL. Compound 13 dosing was also screened with 20% Phosphal IPG, 20% Phosphal MCT, 10% HP-β-CD, and 40% HP-β-CD. Plasma samples were obtained at predefined time points and compound concentrations in plasma were measured by quantitative HPLC–MS/MS using an internal standard. Calibration and quality control samples were prepared using blank plasma from untreated animals. Samples were precipitated with acetonitrile and injected into a HPLC system (Agilent 1200). Separation was performed by gradients of 5 mmol/L ammonium acetate pH 5.0 and acetonitrile with 0.1% formic acid on a Luna C8 reversed-phase column with 2.5 μm particles (Phenomenex). The HPLC was interfaced by ESI operated in positive ionization mode to a triple quadrupole mass spectrometer (6500+ Triple Quad System, SCIEX) operated in multiple reaction monitoring mode. Chromatograms were analyzed with Analyst (SCIEX) and pharmacokinetic parameters were calculated by noncompartmental analysis using proprietary software.

Mcl-1 = target: T1, Mcl-1 (Homo sapiens, UniProt Q07820); test: TR-FRET binding assay (FITC-Bak peptide competition)
T1 construct: Briefly, a previously reported construct was subcloned into an expression vector (pDEST-HisMBP); MBP (from vector pDEST-HisMBP); made in house; host or cells: Escherichia coli BL21 CodonPlus (DE3) RIL
Text: Protein preparation was described previously. Briefly, a previously reported construct was subcloned into an expression vector (pDEST-HisMBP) expressed in Escherichia coli BL21 CodonPlus (DE3) RIL (Stratagene) and purified through nickel-column and size-exclusion chromatography sequentially.
Mixtures containing vehicle without compound served as a negative control, while mixtures containing no protein served as a positive control. […] Two or more repeats were obtained and average K i values are reported.

A427 cells = test: In vitro proliferation assay (CellTiter-Glo), A427; assay type: cell-based; details: Homo sapiens, A-427
Description: (§1) NCI-H929, A427, and K562 cell lines were obtained from ATCC. NCI-H929 cells were cultured in RPMI1640 (ATCC-formulated, Catalog No. 30-2001) + 10% fetal calf serum (FCS, GIBCO BRL, Cat. No. 26140) + 0.05 mM mercaptoethanol. A-427 cells were cultured in RPMI1640 (ATCC-formulated, Catalog No. 30-2001) + 10% fetal calf serum (FCS, GIBCO BRL, Cat. No. 26140). K562 cell lines were cultured in Iscove’s Modified Dulbecco Medium (Gibco-formulated, purchased from Thermo-Fisher, Cat. No. 12440-053) + 10% fetal bovine serum (FBS, Sigma-Aldrich, F2442). All cell lines were cultured at 37 °C with 5% CO2 in a humidified incubator and have been regularly tested negatively for mycoplasm contamination.
(§2) Cells were seeded at 750–1500 cells per well (depending on growth kinetics) in 384-well plates (Corning, Catalog No. 3707) or at 3000 cells per well in 96-well plates in the respective growth medium and allowed to settle overnight. Suspension cells were plated immediately before compound addition. Adherent cell lines were incubated overnight at 37 °C in a tissue culture incubator prior to compound addition. Compounds were added in triplicates using an HP D300e Digital Dispenser (Hewlett-Packard) or manually at the concentrations indicated and total volumes were normalized using DMSO backfill, with final DMSO concentration of 0.5%. Control wells were treated with DMSO only. Following incubation for 72 or 96 h, a Cell Titer-Glo assay was conducted following the manufacturer recommendations (Promega, G9243) and luminescence was measured using a Victor X5 (PerkinElmer) or a Cytation 3 (Biotek) plate reader. % Viability was defined as relative luminescence units (RLU) of each well divided by the RLU of cells on day 0. Four parameter sigmoidal dose–response curves were generated and IC50 values were determined using XLFit (IDBS) software (eq 205) or in-house software. Drug combination experiments were performed in 96-well or 384-well format and drug synergy was determined using the BLISS model (PMID: 26171228).

NCI-H929 cells = test: In vitro proliferation assay (CellTiter-Glo), H929; assay type: cell-based; details: Homo sapiens
Description: as §1, §2

K562 cells = test: In vitro proliferation counterscreen, Mcl-1 insensitive K562; assay type: cell-based; details: Homo sapiens; Mcl-1 insensitive K562; top concentration tested 12.5 µM
Description: NCI-H929, A427, and K562 cell lines were obtained from ATCC.
Suspension cells were plated immediately before compound addition. Adherent cell lines were incubated overnight at 37 °C in a tissue culture incubator prior to compound addition. Compounds were added in triplicates using an HP D300e Digital Dispenser (Hewlett-Packard) or manually at the concentrations indicated and total volumes were normalized using DMSO backfill, with final DMSO concentration of 0.5%. Control wells were treated with DMSO only. Following incubation for 72 or 96 h, a Cell Titer-Glo assay was conducted following the manufacturer recommendations (Promega, G9243) and luminescence was measured using a Victor X5 (PerkinElmer) or a Cytation 3 (Biotek) plate reader. % Viability was defined as relative luminescence units (RLU) of each well divided by the RLU of cells on day 0.

[2] = system: caspase 3/7 in A427 cells; test: Caspase 3/7 induction assay (Caspase-Glo), A427; assay type: cell-based; details: compound treatment for 3 h; for EC50: Homo sapiens, A-427
Description: (§3) Cells were treated with a 10-point compound titration and incubated at 37 °C for 3 h.

[3] = system: caspase 3/7 in H929 cells; test: Caspase 3/7 induction assay (Caspase-Glo), H929; assay type: cell-based; details: compound treatment for 3 h; for EC50: Homo sapiens, NCI-H929
Description: as §3

[4] = system: caspase 3/7 in K562 cells; test: Caspase 3/7 induction assay (Caspase-Glo), K562; assay type: cell-based; details: compound treatment for 3 h; for EC50: Homo sapiens, K562
Description: as §3

[5] = dosed at 20 mg/kg, read-out: i.v. mouse CL
[6] = supplementary CSV, unit not given (Table 1: 20 mg/kg, 14 and 16 at 10 mg/kg), read-out: CL
[7] = in the presence of 1% fetal bovine serum, average of at least n = 2, read-out: TRFRET, Mcl-1 Ki
[8] = supplementary CSV, unit inferred, read-out: Ki TRFRET
[9] = supplementary CSV, unit inferred
[10] = A427 cell line, average of at least n = 2, triplicate
[11] = H929 cell line, average of at least n = 2, triplicate
[12] = dosed at 10 mg/kg, read-out: i.v. mouse CL

T1 sequence (Q07820 whole entry): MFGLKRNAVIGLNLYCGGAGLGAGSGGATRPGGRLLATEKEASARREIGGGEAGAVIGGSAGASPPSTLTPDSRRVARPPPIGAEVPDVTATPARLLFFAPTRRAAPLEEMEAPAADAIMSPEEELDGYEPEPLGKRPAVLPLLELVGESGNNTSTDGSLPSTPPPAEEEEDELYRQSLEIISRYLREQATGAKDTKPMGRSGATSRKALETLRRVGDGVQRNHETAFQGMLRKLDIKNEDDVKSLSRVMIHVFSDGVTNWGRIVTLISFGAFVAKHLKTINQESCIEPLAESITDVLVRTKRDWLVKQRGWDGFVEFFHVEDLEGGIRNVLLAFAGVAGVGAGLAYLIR

| clearance [1, 5] | clearance [1, 6] | Ki (Mcl-1; [7]) | Ki (Mcl-1; [8]) | GI50 (NCI-H929 cells; [9]) | EC50 [2] | GI50 (NCI-H929 cells; [11]) | clearance [1, 12] | EC50 [3] | EC50 [4] | Compound | GI50 (A427 cells; [9]) | GI50 (K562 cells) | A427 Caspase 3/7 fold over vehicle (FoV) [2] | GI50 (A427 cells; [10]) | H929 Caspase 3/7 maximum activity, fold over vehicle (FoV) [3] | K562 Caspase 3/7 fold over vehicle (FoV) [4] |
| --- | --- | --- | --- | --- | --- | --- | --- | --- | --- | --- | --- | --- | --- | --- | --- | --- |
| 70 mL/min/kg | 70 mL/min/kg |  |  |  |  |  |  |  |  | COc1cc(N2C[C@@H](C)n3c(c(CCCOc4cc(C)c(Cl)c(C)c4)c4ccc(Cl)c(-c5c(C)nn(C)c5C)c43)C2=O)c2c(cc(C(=O)O)n2C)c1OC [Compound 9] |  |  |  |  |  |  |
|  |  | 0.08 ± 0.01 nM | 0.04 nM | 24 nM |  |  |  |  |  | COc1cc2c3c(cc(C(=O)O)n3CCCOCc3c(c(C)nn3C)-c3c(Cl)ccc4c(CCCOc5cc(C)c(Cl)c(C)c5)c5n(c34)[C@H](C)CN2C5=O)c1OC [Compound 11, (2^63^4 S a ,1^72^2 R a ,2^4 R)-2^7-Chloro-2^10-(3-(4-chloro-3,5-dimethylphenoxy)propyl)-1^4,1^5-dimethoxy-2^4,3^1,3^3-trimethyl-2^1-oxo-2^1,2^2,2^3,2^4-tetrahydro-1^1 H,3^1 H-5-oxa-2(2,6)-pyrazino[1,2-a]indola-1(7,1)-indola-3(4,5)-pyrazolacyclooctaphane-1^2-carboxylic Acid] | 64 nM | > 12500 nM |  |  |  |  |
|  |  |  | 0.12 nM | 39 nM |  |  |  |  |  | COc1cc2c3c(cc(C(=O)O)n3CCCCOCc3nn(C)c(C)c3-c3c(Cl)ccc4c(CCCOc5cc(C)c(Cl)c(C)c5)c5n(c34)[C@H](C)CN2C5=O)c1OC [Compound 12, (2^63^4 S a ,1^72^2 R a ,24R)-2^7-Chloro-2^10-(3-(4-chloro-3,5-dimethylphenoxy)propyl)-1^4,1^5-dimethoxy-2^4,3^1,3^5-trimethyl-2^1-oxo-2^1,2^2,2^3,2^4-tetrahydro-1^1 H,3^1 H-5-oxa-2(2,6)-pyrazino[1,2-a]indola-1(7,1)-indola-3(4,3)-pyrazolacyclononaphane-1^2-carboxylic Acid] | 87 nM | > 7800 nM |  |  |  |  |
|  | 8.4 mL/min/kg | < 0.08 nM | 0.03 nM |  | 35 nM | 64 ± 17 nM | 8.4 mL/min/kg | 45 nM | > 3120 nM | Cc1cc2c3c(c1)cc(C(=O)O)n3CCCOCc1nn(C)cc1-c1c(Cl)ccc3c(CCCOc4cc(C)c(Cl)c(C)c4)c4n(c13)[C@H](C)CN2C4=O [Compound 14, (2^63^4 S a ,1^72^2 R a ,2^4 R)-2^7-Chloro-2^10-(3-(4-chloro-3,5-dimethylphenoxy)propyl)-1^5,2^4,3^1-trimethyl-2^1-oxo-2^1,2^2,2^3,2^4-tetrahydro-1^1 H,3^1 H-5-oxa-2(2,6)-pyrazino[1,2-a]indola-1(7,1)-indola-3(4,3)-pyrazolacyclooctaphane-1^2-carboxylic Acid] |  | > 10200 nM | 16 fold | 195 ± 14 nM | 17 fold | 1.3 fold |
|  |  | < 0.08 nM | 0.04 nM |  | 34 nM | 38 ± 11 nM |  | 43 nM | > 3120 nM | COc1cc2c3c(c1)cc(C(=O)O)n3CCCOCc1nn(C)cc1-c1c(Cl)ccc3c(CCCOc4cc(C)c(Cl)c(C)c4)c4n(c13)[C@H](C)CN2C4=O [Compound 15, (2^63^4 S a ,1^72^2 R a ,2^4 R)-2^7-Chloro-2^10-(3-(4-chloro-3,5-dimethylphenoxy)propyl)-1^5-methoxy-2^4,3^1-dimethyl-2^1-oxo-2^1,2^2,2^3,2^4-tetrahydro-1^1 H,3^1 H-5-oxa-2(2,6)-pyrazino[1,2-a]indola-1(7,1)-indola-3(4,3)-pyrazolacyclooctaphane-1^2-carboxylic Acid] |  | > 12500 nM | 15 fold | 60 ± 24 nM | 17 fold | 1.3 fold |
|  | 17.3 mL/min/kg | < 0.08 nM |  |  | 24 nM | 27 ± 3 nM | 17.3 mL/min/kg | 16 nM | > 3120 nM | COc1ccc2c3c1cc(C(=O)O)n3CCCOCc1nn(C)cc1-c1c(Cl)ccc3c(CCCOc4cc(C)c(Cl)c(C)c4)c4n(c13)[C@H](C)CN2C4=O [Compound 16, (2^63^4 S a ,1^72^2 R a ,2^4 R)-2^7-Chloro-2^10-(3-(4-chloro-3,5-dimethylphenoxy)propyl)-1^4-methoxy-2^4,3^1-dimethyl-2^1-oxo-2^1,2^2,2^3,2^4-tetrahydro-1^1 H,3^1 H-5-oxa-2(2,6)-pyrazino[1,2-a]indola-1(7,1)-indola-3(4,3)-pyrazolacyclooctaphane-1^2-carboxylic Acid] |  | > 12500 nM | 15 fold | 45 ± 17 nM | 16 fold and 16 (16) fold | 1.3 fold |
|  |  | < 0.08 nM | < 0.02 nM |  |  | 15 ± 4 nM |  |  |  | COc1cc2c3c(cc(C(=O)O)n3CCCOCc3nn(C)cc3-c3cccc4c(CCCOc5cc(C)c(Cl)c(C)c5)c5n(c34)[C@H](C)CN2C5=O)c1OC [Compound 23, (2^63^4 R a ,1^72^2 R a ,2^4 R)-2^10-(3-(4-Chloro-3,5-dimethylphenoxy)propyl)-1^4,1^5-dimethoxy-2^4,3^1-dimethyl-2^1-oxo-2^1,2^2,2^3,2^4-tetrahydro-1^1 H,3^1 H-5-oxa-2(2,6)-pyrazino[1,2-a]indola-1(7,1)-indola-3(4,3)-pyrazolacyclooctaphane-1^2-carboxylic Acid] |  | > 12500 nM |  | 32 ± 4 nM |  |  |
| 2 mL/min/kg | 2 mL/min/kg | 105 ± 8 nM |  |  |  | 1100 ± 380 nM |  |  |  | COc1c(OCC2CCOCC2)cc(N2C[C@@H](C)n3c(c(CCCOc4cc(C)c(Cl)c(C)c4)c4ccc(Cl)c(-c5c(C)nc(C)nc5C)c43)C2=O)c2c1cc(C(=O)N(C)C)n2C [Compound 24, (R)-7-(7-chloro-10-(3-(4-chloro-3,5-dimethylphenoxy)propyl)-4-methyl-1-oxo-6-(2,4,6-trimethylpyrimidin-5-yl)-3,4-dihydropyrazino[1,2-a]indol-2(1H)-yl)-4-methoxy-N,N,1-trimethyl-5-((tetrahydro-2H-pyran-4-yl)methoxy)-1H-indole-2-carboxamide] |  | > 12500 nM |  | 3600 ± 140 nM |  |  |
